pEC50: −log10 of the molar value. Entries after “also recorded” stand apart in the source; their conditions may differ. Where two headings read alike, the source gives them in different places. Where a SMILES comes first, the peptide text is derived from it. Bridges are numbered along the chain shown (N, C = ends). Roman numbers before positions name the chains, in order. Where no end group is shown, it is not given here. [ ]: non-standard residue; d: D form. AEEA = NCCOCCOCC(=O)O
Assays:
[1] = biological target: CD40L-induced CD86 expression on primary B-cells (Homo sapiens, UniProt P29965); experiment: Inhibition of CD40L-induced CD86 expression on primary B-cells (FACS); format: cell-based; settings: for inhibition of CD40L-induced CD86 expression (qualitative): figure legends
Chain of CD40L-induced CD86 expression on primary B-cells (P29965 whole entry): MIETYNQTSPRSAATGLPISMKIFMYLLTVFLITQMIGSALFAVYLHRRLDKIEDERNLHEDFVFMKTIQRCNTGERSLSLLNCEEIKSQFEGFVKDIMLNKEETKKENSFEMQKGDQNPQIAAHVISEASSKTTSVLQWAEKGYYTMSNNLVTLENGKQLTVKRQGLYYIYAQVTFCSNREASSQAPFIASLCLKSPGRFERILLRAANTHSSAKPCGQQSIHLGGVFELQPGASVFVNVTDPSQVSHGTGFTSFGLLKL
Chain of CD40L-induced CD86 expression on primary B-cells (P25942 21-277 partner): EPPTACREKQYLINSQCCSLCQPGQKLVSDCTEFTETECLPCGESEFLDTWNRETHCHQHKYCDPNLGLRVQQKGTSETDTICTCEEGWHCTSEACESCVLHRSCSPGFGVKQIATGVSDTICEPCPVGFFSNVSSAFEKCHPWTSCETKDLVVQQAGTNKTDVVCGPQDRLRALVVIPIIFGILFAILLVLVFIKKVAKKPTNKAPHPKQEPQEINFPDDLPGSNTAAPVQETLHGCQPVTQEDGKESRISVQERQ
Procedure: In one example, the ability of a peptide, analog or derivative of the invention to inhibit or reduce or delay expression of CD86 on primary B-cells was determined in the presence and absence of the peptides, analogs and derivatives of the invention. In particular, CD86 expression was determined by FACS.
(§1) In these assays, CD40L induced CD86 expression in a concentration-dependent manner in the absence of a peptidyl inhibitor of the present invention with an EC50 value of about 9 nM (FIG. 6d, 6e). As a control in these assays, LPS-induced expression of CD86 mediated by the Toll-like receptors TLR 2/4, and TNFα-induced cytoxicity, were also assayed to exclude effects mediated by ligands other than CD40L.
In a similar series of bioassays, dimeric forms of the CD40L peptide inhibitors were also tested for their ability to inhibit or reduce CD40L-induced expression of CD86 on primary B-cells.

CD40L/CD40-Fc = biological target: T1, CD40L/CD40-Fc (Homo sapiens, UniProt P29965); experiment: Chemiluminescent proximity assay (Alphascreen) of CD40L-CD40 interaction; format: binding; settings: for inhibition of CD40L-CD40 interaction relative to monomeric peptide controls: qualitative
T1 sequence (P29965 113-261 limits assumed): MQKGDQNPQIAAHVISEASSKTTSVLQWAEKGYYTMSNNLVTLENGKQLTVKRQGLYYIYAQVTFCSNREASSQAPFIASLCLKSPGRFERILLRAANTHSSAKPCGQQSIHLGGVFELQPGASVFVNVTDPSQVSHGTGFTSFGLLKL
Procedure: In one example, the Alphascreen assay (PerkinElmer) was employed according to the manufacturer's instructions.
Homodimers and heterodimers were also assayed by chemiluminescent proximity assay for their ability to inhibit CD40L-CD40 interaction.

TNFα = experiment: TNFα-induced cytotoxicity (control); format: cell-based; settings: specificity control
Procedure: as §1

[2] = monomeric and dimeric peptides, Table 7, read-out: EC50
[3] = monomeric and dimeric peptides, Table 5, read-out: EC50

Compound: CC(C)C[C@H](NC(=O)[C@H](Cc1ccc(O)cc1)NC(=O)[C@H](CC(=O)O)NC(=O)[C@H](CCCNC(=N)N)NC(=O)[C@H](CCCNC(=N)N)NC(=O)[C@H](Cc1ccccc1)NC(=O)[C@H](CO)NC(=O)[C@H](CO)NC(=O)[C@H](Cc1ccc(O)cc1)NC(=O)[C@H](Cc1ccccc1)NC(=O)[C@H](CCCNC(=N)N)NC(=O)[C@H](Cc1ccccc1)NC(=O)[C@H](CC(C)C)NC(=O)[C@H](Cc1ccccc1)NC(=O)[C@H](Cc1ccccc1)NC(=O)[C@H](CC(C)C)NC(=O)[C@H](CC(N)=O)NC(=O)[C@H](Cc1ccc(O)cc1)NC(=O)[C@H](CCCNC(=N)N)NC(=O)[C@@H]1CCCN1C(=O)[C@@H]1CCCN1)C(=O)N[C@@H](Cc1ccc(O)cc1)C(=O)N[C@@H](Cc1ccccc1)C(=O)O [CD40L M1_9s] (H-PPRYNLFFLFRFYSSFRRDYLYF-OH; N-terminus and C-terminus assumed)
- pEC50 [1, 2]: 6.25
- pEC50 (CD40L/CD40-Fc; [3]): 6.25
- inhibition of rTNFα-induced cytoxicity (TNFα): lack of inhibition; also recorded: no significant inhibition

Compound: CC[C@H](C)[C@H](NC(=O)[C@H](CO)NC(=O)[C@H](Cc1c[nH]c2ccccc12)NC(=O)[C@H](CCC(N)=O)NC(=O)[C@@H](NC(=O)[C@@H]1CCCN1C(=O)[C@H](Cc1ccccc1)NC(=O)[C@H](Cc1ccccc1)NC(=O)[C@H](Cc1c[nH]c2ccccc12)NC(=O)CNC(=O)[C@H](Cc1ccc(O)cc1)NC(=O)[C@H](CCCCN)NC(=O)[C@H](CC(C)C)NC(=O)[C@@H](NC(=O)[C@H](Cc1c[nH]cn1)NC(=O)[C@H](CO)NC(=O)[C@H](CCCNC(=N)N)NC(=O)[C@H](Cc1ccc(O)cc1)NC(=O)[C@@H]1CCCN1C(=O)[C@@H](NC(=O)[C@H](Cc1ccccc1)NC(=O)[C@@H]1CCCN1C(=O)[C@@H](N)CC(C)C)C(C)C)C(C)C)C(C)C)C(=O)N[C@@H](Cc1ccccc1)C(=O)N[C@@H](C)C(=O)N[C@H](C(=O)N[C@@H](CC(C)C)C(=O)N1CCC[C@H]1C(=O)N[C@@H](Cc1ccccc1)C(=O)N[C@@H](CCC(N)=O)C(=O)N[C@@H](Cc1ccc(O)cc1)C(=O)N[C@@H](CC(C)C)C(=O)N[C@@H](Cc1c[nH]cn1)C(=O)N[C@@H](CCCNC(=N)N)C(=O)N[C@@H](CO)C(=O)N[C@@H](CCCNC(=N)N)C(=O)O)C(C)C [CD40L M1_18s] (H-LPFVPYRSHVLKYGWFFPVQWSIFAVLPFQYLHRSR-OH; N-terminus and C-terminus assumed)
- inhibition of rTNFα-induced cytoxicity (TNFα; listed as M1—18*S): lack of inhibition
- inhibition of rTNFα-induced cytoxicity (TNFα; listed as M1—18S): no significant inhibition

Compound: CC[C@H](C)[C@H](NC(=O)CNC(=O)CNC(=O)[C@H](CCCNC(=N)N)NC(=O)[C@H](CCC(N)=O)NC(=O)[C@@H](NC(=O)CNC(=O)[C@H](CO)NC(=O)[C@@H]1CCCN1C(=O)[C@@H](NC(=O)[C@H](Cc1ccccc1)NC(=O)[C@H](CC(C)C)NC(=O)[C@H](CO)NC(=O)[C@H](Cc1ccc(O)cc1)NC(=O)[C@H](Cc1ccccc1)NC(=O)[C@H](CCCNC(=N)N)NC(=O)[C@H](CC(N)=O)NC(=O)[C@H](CCCNC(=N)N)NC(=O)[C@@H](NC(=O)[C@H](Cc1c[nH]c2ccccc12)NC(=O)[C@H](CCCNC(=N)N)NC(=O)[C@@H]1CCCN1)C(C)C)C(C)C)C(C)C)C(=O)N[C@@H](Cc1c[nH]cn1)C(=O)N[C@@H](CC(C)C)C(=O)N[C@@H](Cc1c[nH]c2ccccc12)C(=O)N[C@@H](Cc1ccccc1)C(=O)N[C@@H](CO)C(=O)N[C@@H](CC(N)=O)C(=O)N[C@@H](Cc1c[nH]c2ccccc12)C(=O)N[C@H](C(=O)N[C@@H](CCCNC(=N)N)C(=O)O)C(C)C [CD40L M1_50s] (H-PRWVRNRFYSLFVPSGVQRGGIHLWFSNWVR-OH; N-terminus and C-terminus assumed)
- pEC50 ([1]; PEGylated monomeric peptide, read-out: EC50 PEGylated peptide): 7.52

Compound: CC[C@H](C)[C@H](NC(=O)[C@H](CC(C)C)NC(=O)[C@H](CCC(N)=O)NC(=O)[C@H](Cc1ccccc1)NC(=O)[C@H](Cc1ccc(O)cc1)NC(=O)[C@H](Cc1ccc(O)cc1)NC(=O)[C@H](CCCCN)NC(=O)[C@H](Cc1ccccc1)NC(=O)[C@H](CCCNC(=N)N)NC(=O)[C@H](CO)NC(=O)[C@H](Cc1ccc(O)cc1)NC(=O)[C@H](CCCNC(=N)N)NC(=O)[C@H](Cc1c[nH]c2ccccc12)NC(=O)[C@H](Cc1c[nH]cn1)NC(=O)[C@H](Cc1ccc(O)cc1)NC(=O)[C@H](CCC(N)=O)NC(=O)[C@@H](NC(=O)[C@@H](N)CO)[C@@H](C)CC)C(=O)N[C@@H](Cc1c[nH]c2ccccc12)C(=O)N[C@H](C(=O)N[C@@H](Cc1ccc(O)cc1)C(=O)N[C@@H](Cc1ccc(O)cc1)C(=O)N[C@@H](CO)C(=O)N[C@@H](Cc1c[nH]cn1)C(=O)N[C@H](C(=O)O)C(C)C)C(C)C [CD40L M1_82s] (H-SIQYHWRYSRFKYYFQLIWVYYSHV-OH; N-terminus and C-terminus assumed)
- pEC50 (CD40L/CD40-Fc; PEGylated Cys-Ser derivative, read-out: EC50(PEGylated) CD40L/CD40-Fc/BAF617): 6.92

Compound: CC[C@H](C)[C@H](NC(=O)[C@@H](NC(=O)[C@H](CCCCN)NC(=O)[C@@H](NC(=O)[C@H](Cc1ccc(O)cc1)NC(=O)[C@H](CC(C)C)NC(=O)[C@@H](N)CC(C)C)C(C)C)C(C)C)C(=O)N[C@@H](CS)C(=O)N[C@@H](Cc1ccccc1)C(=O)N[C@@H](Cc1ccccc1)C(=O)N[C@@H](CS)C(=O)N[C@@H](CCSC)C(=O)N[C@@H](CC(C)C)C(=O)N[C@H](C(=O)N[C@@H](CCC(N)=O)C(=O)N[C@@H](Cc1ccc(O)cc1)C(=O)N[C@@H](CC(N)=O)C(=O)N[C@@H](CC(N)=O)C(=O)N[C@@H](Cc1ccccc1)C(=O)N[C@@H](CCC(N)=O)C(=O)N[C@H](C(=O)N[C@@H](Cc1ccc(O)cc1)C(=O)N[C@@H](CCCCN)C(=O)O)[C@@H](C)O)C(C)C [CD40L M2_159] (H-LLYVKVICFFCMLVQYNNFQTYK-OH; N-terminus and C-terminus assumed)
- pEC50 (CD40L/CD40-Fc; unmodified (non-PEGylated) monomeric base peptide; read-out: EC50nmodified) CD40L/CD40-Fc/BAF617): 6.92

Compound: CC[C@H](C)[C@H](NC(=O)[C@H](CO)NC(=O)[C@H](Cc1ccccc1)NC(=O)[C@@H](NC(=O)[C@H](CC(N)=O)NC(=O)[C@H](CCCCN)NC(=O)[C@@H](NC(=O)[C@H](CO)NC(=O)[C@H](Cc1ccccc1)NC(=O)[C@@H]1CCCN1C(=O)[C@H](Cc1c[nH]cn1)NC(=O)COCCOCCNC(=O)[C@@H](N)CSSC[C@H](N)C(=O)NCCOCCOCC(=O)N[C@@H](Cc1c[nH]cn1)C(=O)N1CCC[C@H]1C(=O)N[C@@H](Cc1ccccc1)C(=O)N[C@@H](CO)C(=O)N[C@H](C(=O)N[C@@H](CCCCN)C(=O)N[C@@H](CC(N)=O)C(=O)N[C@H](C(=O)N[C@@H](Cc1ccccc1)C(=O)N[C@@H](CO)C(=O)N[C@H](C(=O)N[C@@H](Cc1c[nH]c2ccccc12)C(=O)N[C@@H](CC(N)=O)C(=O)N[C@@H](Cc1ccccc1)C(=O)N[C@@H](Cc1ccccc1)C(=O)N[C@@H](CO)C(=O)N[C@H](C(=O)N[C@@H](Cc1ccc(O)cc1)C(=O)O)C(C)C)[C@@H](C)CC)C(C)C)[C@@H](C)CC)[C@@H](C)CC)C(C)C)C(=O)N[C@@H](Cc1c[nH]c2ccccc12)C(=O)N[C@@H](CC(N)=O)C(=O)N[C@@H](Cc1ccccc1)C(=O)N[C@@H](Cc1ccccc1)C(=O)N[C@@H](CO)C(=O)N[C@H](C(=O)N[C@@H](Cc1ccc(O)cc1)C(=O)O)C(C)C [Cys_M1_6S homodimer] (I: H-C[AEEA]HPFSIKNVFSIWNFFSVY-OH / II: H-C[AEEA]HPFSIKNVFSIWNFFSVY-OH; disulfide I:1-II:1; C-terminus assumed)
- inhibition of CD40L-induced CD86 expression (qualitative) [1]: enhanced inhibition
- inhibition of CD40L-CD40 interaction relative to monomeric peptide controls (CD40L/CD40-Fc): enhanced inhibition

Compound: CC[C@H](C)[C@H](NC(=O)[C@H](CO)NC(=O)[C@H](Cc1ccccc1)NC(=O)[C@@H]1CCCN1C(=O)[C@@H]1CCCN1C(=O)[C@H](CO)NC(=O)[C@H](Cc1ccccc1)NC(=O)[C@H](Cc1ccccc1)NC(=O)[C@H](Cc1ccccc1)NC(=O)[C@H](CC(C)C)NC(=O)[C@H](CC(C)C)NC(=O)[C@@H](N)CC(C)C)C(=O)N[C@@H](Cc1ccccc1)C(=O)N[C@@H](CO)C(=O)N[C@@H](Cc1ccccc1)C(=O)N[C@@H](CO)C(=O)N[C@@H](CC(C)C)C(=O)N[C@H](C(=O)N[C@H](C(=O)N[C@@H](CC(C)C)C(=O)N[C@@H](CO)C(=O)O)[C@@H](C)O)[C@@H](C)O [Peptide M7_189S] (H-LLLFFFSPPFSIFSFSLTTLS-OH)
- pEC50 [1, 2]: 6.75
- pEC50 (CD40L/CD40-Fc; [3]): 6.75

Compound: HPFSIKNVFSIWNFFSVY [CD40L M1_6s]
- inhibition of rTNFα-induced cytoxicity (TNFα): lack of inhibition; also recorded: no significant inhibition

Compound: I: H-C[AEEA]LLLFFFSPPFSIFSFSLTTLS / II: H-C[AEEA]HPFSIKNVFSIWNFFSVY (disulfide I:1-II:1) [Cys_M1_6S-Cys_M1_189S heterodimer]
- inhibition of CD40L-induced CD86 expression (qualitative) [1]: enhanced inhibition
- inhibition of CD40L-CD40 interaction relative to monomeric peptide controls (CD40L/CD40-Fc): enhanced inhibition

Compound: I: H-C[AEEA]PPRYNLFFLFRFYSSFRRDYLYF / II: H-C[AEEA]HPFSIKNVFSIWNFFSVY (disulfide I:1-II:1) [Cys_M1_6S-Cys_M1_9S heterodimer]
- inhibition of CD40L-induced CD86 expression (qualitative) [1]: enhanced inhibition
- inhibition of CD40L-CD40 interaction relative to monomeric peptide controls (CD40L/CD40-Fc): enhanced inhibition

— patent US8802634B2, “CD40-L Inhibitory Peptides” (Phylogica Limited, priority 2008, dated 2014)
